Consider 20 compounds from US9567302B2, “Carbamate compounds and of making and using same” (Abide Therapeutics, Inc., priority 2012, dated 2017).

Holding throughout (type): biochemical
What all share (design): from tissue; host or cells: mouse brain membrane fraction
Holding throughout (details): Table 2, mouse proteome, 30 min preincubation at 37° C.

One test addresses T1, FAAH (Mus musculus, UniProt O08914).
T1 sequence (O08914 1-579): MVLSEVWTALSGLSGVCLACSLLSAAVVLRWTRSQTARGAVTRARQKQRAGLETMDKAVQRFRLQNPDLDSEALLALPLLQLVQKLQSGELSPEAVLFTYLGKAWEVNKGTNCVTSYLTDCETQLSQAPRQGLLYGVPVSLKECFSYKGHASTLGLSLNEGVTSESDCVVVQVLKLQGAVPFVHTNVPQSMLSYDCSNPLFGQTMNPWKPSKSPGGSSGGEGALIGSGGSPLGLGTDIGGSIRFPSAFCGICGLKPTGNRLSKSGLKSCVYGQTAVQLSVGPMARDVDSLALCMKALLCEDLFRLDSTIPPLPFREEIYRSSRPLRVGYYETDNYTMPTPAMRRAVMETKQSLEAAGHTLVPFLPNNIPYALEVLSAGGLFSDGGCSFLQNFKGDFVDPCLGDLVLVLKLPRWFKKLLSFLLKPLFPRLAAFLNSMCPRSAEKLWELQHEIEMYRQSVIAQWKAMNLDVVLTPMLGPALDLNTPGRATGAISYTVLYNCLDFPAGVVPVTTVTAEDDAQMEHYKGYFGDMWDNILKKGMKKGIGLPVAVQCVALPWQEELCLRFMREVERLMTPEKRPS
In words: In vitro competitive activity-based protein profiling (FP-Rh), mouse FAAH. As to the method: (§1) In Vitro Competitive Activity-Based Protein Profiling.
(§2) Proteomes (mouse brain membrane fraction or cell lysates) (50 μL, 1.0 mg/ml total protein concentration) were preincubated with varying concentrations of inhibitors at 37° C. After 30 min, FP-Rh (1.0 μL, 50 μM in DMSO) was added and the mixture was incubated for another 30 min at 37° C. Reactions were quenched with SDS loading buffer (50 μL—4×) and run on SDS-PAGE.

The target of a further test is T2, MAGL (Mus musculus, UniProt O35678).
T2 sequence (O35678 1-303): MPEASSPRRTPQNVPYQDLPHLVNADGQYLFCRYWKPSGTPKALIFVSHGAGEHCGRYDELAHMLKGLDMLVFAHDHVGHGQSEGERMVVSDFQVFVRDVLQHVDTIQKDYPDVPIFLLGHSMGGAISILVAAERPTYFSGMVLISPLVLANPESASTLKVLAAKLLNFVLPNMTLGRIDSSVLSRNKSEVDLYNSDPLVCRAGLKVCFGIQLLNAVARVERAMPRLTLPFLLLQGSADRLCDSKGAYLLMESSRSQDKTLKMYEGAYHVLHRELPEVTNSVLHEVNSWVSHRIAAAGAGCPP
Briefly: In vitro competitive activity-based protein profiling (FP-Rh), mouse MAGL. As to the method:
as §1, §2

A further test addresses T3, ABHD6 (Mus musculus, UniProt Q8R2Y0).
T3 sequence (Q8R2Y0 1-336): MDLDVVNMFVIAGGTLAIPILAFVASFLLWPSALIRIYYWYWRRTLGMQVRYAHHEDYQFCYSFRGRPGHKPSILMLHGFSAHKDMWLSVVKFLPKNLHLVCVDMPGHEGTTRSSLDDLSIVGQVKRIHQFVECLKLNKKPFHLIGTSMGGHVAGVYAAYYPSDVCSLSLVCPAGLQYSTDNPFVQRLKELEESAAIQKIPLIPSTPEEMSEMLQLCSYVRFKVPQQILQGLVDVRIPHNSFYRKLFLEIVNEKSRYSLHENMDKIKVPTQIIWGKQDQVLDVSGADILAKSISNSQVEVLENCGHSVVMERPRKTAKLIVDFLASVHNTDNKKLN
Briefly: In vitro competitive activity-based protein profiling (FP-Rh), mouse ABHD6. As for the experimental part:
as §1, §2

As a reminder, the IC50 is the concentration that inhibits the measured activity by half. A high value points to lower potency. As to `O=C(ON1C(=O)CCC1=O)N1CCN(Cc2ccc(Cl)cc2-n2cc(Cl)cn2)CC1` [Example 95, 2,5-Dioxopyrrolidin-1-yl 4-(4-chloro-2-(4-chloro-1H-pyrazol-1-yl)benzyl)piperazine-1-carboxylate], the IC50 is over 10000 nM on FAAH, under 100 nM at MAGL and 100 to 1000 nM at ABHD6.
For `O=C(ON1C(=O)CCC1=O)N1CCN(Cc2c(Cl)cccc2N2CCCC2)CC1` [Example 97, 2,5-Dioxopyrrolidin-1-yl 4-{[2-chloro-6-(pyrrolidin-1-yl)phenyl]methyl}piperazine-1-carboxylate], in that order: over 10000 nM, 1000 to 10000 nM and 100 to 1000 nM.
For `O=C(ON1C(=O)CCC1=O)N1CCN(Cc2cc(Cl)ccc2N2CCCC2)CC1` [Example 98, 2,5-Dioxopyrrolidin-1-yl 4-{[5-chloro-2-(pyrrolidin-1-yl)phenyl]methyl}piperazine-1-carboxylate] the same measures were over 10000 nM, under 100 nM and 100 to 1000 nM.
For `O=C(ON1C(=O)CCC1=O)N1CCN(Cc2ccc(N3CCOCC3)c(Cl)c2)CC1` [Example 101, 2,5-dioxopyrrolidin-1-yl 4-(3-chloro-4-morpholinobenzyl)piperazine-1-carboxylate] the same measures were over 10000 nM, 1000 to 10000 nM and 100 to 1000 nM.
Take `O=C(ON1C(=O)CCC1=O)N1CCN(Cc2ccc(N3CCCC3)cc2OC(F)(F)F)CC1` [Example 104, 2,5-Dioxopyrrolidin-1-yl 4-{[4-(pyrrolidin-1-yl)-2-(trifluoromethoxy)phenyl]methyl}piperazine-1-carboxylate]: the IC50 is over 10000 nM at FAAH, 100 to 1000 nM on MAGL and 100 to 1000 nM at ABHD6.
As for `O=C(ON1C(=O)CCC1=O)N1CCN(Cc2cccc(Cl)c2N2CCCC2)CC1` [Example 106, 2,5-Dioxopyrrolidin-1-yl 4-{[3-chloro-2-(pyrrolidin-1-yl)phenyl]methyl}piperazine-1-carboxylate], the IC50 was over 10000 nM at FAAH, under 100 nM on MAGL and 1000 to 10000 nM on ABHD6.
For `O=C(ON1C(=O)CCC1=O)N1CCN(Cc2cccc(F)c2N2CCCC2)CC1` [Example 107, 2,5-Dioxopyrrolidin-1-yl 4-{[3-fluoro-2-(pyrrolidin-1-yl)phenyl]methyl}piperazine-1-carboxylate], in that order: over 10000 nM, under 100 nM and 100 to 1000 nM.
For `O=C(ON1C(=O)CCC1=O)N1CCN(Cc2ccc(-n3cccn3)c(F)c2)CC1` [Example 108, 2,5-Dioxopyrrolidin-1-yl 4-(3-fluoro-4-(1H-pyrazol-1-yl)benzyl)piperazine-1-carboxylate] the same measures were over 10000 nM, 1000 to 10000 nM and 1000 to 10000 nM.
As for `O=C(ON1C(=O)CCC1=O)N1CCN(Cc2ccc(Cl)cc2N2CCC3(CCOCC3)C2)CC1` [Example 109, 2,5-Dioxopyrrolidin-1-yl 4-[(4-chloro-2-{8-oxa-2-azaspiro[4.5]decan-2-yl}phenyl)methyl]piperazine-1-carboxylate], the IC50 at FAAH is over 10000 nM; at MAGL, under 100 nM; on ABHD6 it was 1000 to 10000 nM.
For `O=C(ON1C(=O)CCC1=O)N1CCN(Cc2ccc(Cl)cc2N2Cc3cccnc3C2)CC1` [Example 114, 2,5-Dioxopyrrolidin-1-yl 4-[(4-chloro-2-{5H,6H,7H-pyrrolo[3,4-b]pyridin-6-yl}phenyl)methyl]piperazine-1-carboxylate], in that order: over 10000 nM, under 100 nM and 100 to 1000 nM.
On to `CC(=O)N1CCN(c2cc(Cl)ccc2CN2CCN(C(=O)ON3C(=O)CCC3=O)CC2)CC1` [Example 115, 2,5-Dioxopyrrolidin-1-yl 4-{[2-(4-acetylpiperazin-1-yl)-4-chlorophenyl]methyl}piperazine-1-carboxylate], for which the IC50 at FAAH is over 10000 nM; on MAGL it was 100 to 1000 nM; at ABHD6, 1000 to 10000 nM.
For `COC(=O)c1cc(CN2CCN(C(=O)ON3C(=O)CCC3=O)CC2)ccc1N1CCOCC1` [Example 118, 2,5-Dioxopyrrolidin-1-yl 4-(3-(methoxycarbonyl)-4-morpholinobenzyl)piperazine-1-carboxylate], the values for the IC50 at FAAH, on MAGL and on ABHD6 were over 10000 nM, 1000 to 10000 nM and 1000 to 10000 nM, respectively.
For `Cc1c(CN2CCN(C(=O)ON3C(=O)CCC3=O)CC2)cccc1N1CCOCC1` [Example 121, 2,5-Dioxopyrrolidin-1-yl 4-(2-methyl-3-morpholinobenzyl)piperazine-1-carboxylate], the IC50 was over 10000 nM at FAAH, under 100 nM at MAGL and 100 to 1000 nM on ABHD6.
For `Cc1c(CN2CCN(C(=O)ON3C(=O)CCC3=O)CC2)cccc1N1CCCC1` [Example 123, 2,5-Dioxopyrrolidin-1-yl 4-(2-methyl-3-(pyrrolidin-1-yl)benzyl)piperazine-1-carboxylate], in that order: over 10000 nM, under 100 nM and 100 to 1000 nM.
For `O=C(ON1C(=O)CCC1=O)N1CCN(Cc2ccc(F)c(N3CCCC3)c2)CC1` [Example 124, 2,5-Dioxopyrrolidin-1-yl 4-(4-fluoro-3-(pyrrolidin-1-yl)benzyl)piperazine-1-carboxylate], in that order: over 10000 nM, under 100 nM and 100 to 1000 nM.
Turning to `O=C(ON1C(=O)CCC1=O)N1CCN(Cc2ccc(Cl)cc2N2CCCCC2)CC1` [Example 129, 2,5-Dioxopyrrolidin-1-yl 4-(4-chloro-2-(piperidin-1-yl)benzyl)piperazine-1-carboxylate], the IC50 was over 10000 nM on FAAH, under 100 nM on MAGL and 100 to 1000 nM at ABHD6.
For `O=C(ON1C(=O)CCC1=O)N1CCN(Cc2ccc(Cl)cc2N2CC3CCC(C2)O3)CC1` [Example 130, 2,5-Dioxopyrrolidin-1-yl 4-(2-(8-oxa-3-azabicyclo[3.2.1]octan-3-yl)-4-chlorobenzyl)piperazine-1-carboxylate], in that order: over 10000 nM, under 100 nM and 1000 to 10000 nM.
For `O=C(ON1C(=O)CCC1=O)N1CCN(Cc2ccc(Cl)cc2N2CCOC3CCCC32)CC1` (stereo not drawn) [Example 131, 2,5-Dioxopyrrolidin-1-yl 4-(4-chloro-2-(hexahydrocyclopenta[b][1,4]oxazin-4(4aH)-yl)benzyl)piperazine-1-carboxylate] the same measures were over 10000 nM, under 100 nM and 1000 to 10000 nM.
For `O=C(ON1C(=O)CCC1=O)N1CCN(Cc2cc(Cl)cc(N3CCCCC3)c2)CC1` [Example 132, 2,5-Dioxopyrrolidin-1-yl 4-(3-chloro-5-(piperidin-1-yl)benzyl)piperazine-1-carboxylate], in that order: over 10000 nM, under 100 nM and 100 to 1000 nM.
Take `O=C(ON1C(=O)CCC1=O)N1CCN(Cc2cccc(N3CCCCC3)c2)CC1` [Example 133, 2,5-Dioxopyrrolidin-1-yl 4-(3-(piperidin-1-yl)benzyl)piperazine-1-carboxylate]: the IC50 on FAAH is over 10000 nM; on MAGL, under 100 nM; on ABHD6, under 100 nM.
